How the values were obtained:
Aspergillus flavus [1] = experiment: MIC, YAG medium; assay type: cell-based; settings: Aspergillus flavus, 24 h, 24 h at 35° C, MIC banded into grades, read-out: MIC grade, A. flavus
Method in brief: (§1)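 Spores from 5-day Sabouraud agar cultures were suspended in YAG medium (1% glucose, 1% ammonium chloride, 0.5% yeast extract) at final inocula of 1−2×10^4 cfu/mL against doubling dilutions of compound (50-0.05 mg/L; 0.5-0.0005 mg/L on repeat). Plates were incubated 24 h at 35° C. MIC was the lowest concentration giving >70% growth inhibition by OD485 versus drug-free control.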

[2] = system: Aspergillus fumigatus AF210; experiment: MIC, YAG medium; assay type: cell-based; settings: Aspergillus fumigatus, 24 h at 35° C, MIC banded into grades, read-out: MIC grade, A. fumigatus 210
Method in brief: as §1

[3] = system: Aspergillus fumigatus AF293; experiment: MIC, YAG medium; assay type: cell-based; settings: Aspergillus fumigatus, 24 h at 35° C, MIC banded into grades, read-out: MIC grade, A. fumigatus
Method in brief: as §1

Aspergillus niger [4] = experiment: MIC, YAG medium; assay type: cell-based; settings: Aspergillus niger, 24 h at 35° C, MIC banded into grades, read-out: MIC grade, A. niger
Method in brief: as §1

Aspergillus terreus AT49 [5] = experiment: MIC, YAG medium; assay type: cell-based; settings: Aspergillus terreus, 24 h at 35° C, MIC banded into grades, read-out: MIC grade, A. terreus 49
Method in brief: as §1

Aspergillus terreus AT4 [6] = experiment: MIC, YAG medium; assay type: cell-based; settings: Aspergillus terreus, 24 h at 35° C, MIC banded into grades, read-out: MIC grade, A. terreus
Method in brief: as §1

Aspergillus flavus [7] = experiment: MIC, RPMI medium; assay type: cell-based; settings: Aspergillus flavus, MIC banded into grades, read-out: MIC grade, A. flavus
Method in brief: (§2)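 MIC taken as lowest drug level inhibiting growth by >80% relative to drug-free wells, read as OD at 485 nm after 24-48 h at 35° C. Organisms at 1−2×10^4 cfu/mL in RPMI (2% glucose, 0.135 M MOPS, pH 7.0) exposed to doubling dilutions spanning 50-0.05 mg/L.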

[8] = system: Aspergillus fumigatus AF210; experiment: MIC, RPMI medium; assay type: cell-based; settings: Aspergillus fumigatus, AF210, MIC banded into grades, read-out: MIC grade, A. fumigatus 210
Method in brief: as §2

[9] = system: Aspergillus fumigatus AF293; experiment: MIC, RPMI medium; assay type: cell-based; settings: Aspergillus fumigatus, AF293, MIC banded into grades, read-out: MIC grade, A. fumigatus
Method in brief: as §2

Aspergillus niger [10] = experiment: MIC, RPMI medium; assay type: cell-based; settings: Aspergillus niger, MIC banded into grades, read-out: MIC grade, A. niger
Method in brief: as §2

Aspergillus terreus AT49 [11] = experiment: MIC, RPMI medium; assay type: cell-based; settings: Aspergillus terreus, AT49, MIC banded into grades, read-out: MIC grade, A. terreus 49
Method in brief: as §2

Aspergillus terreus AT4 [12] = experiment: MIC, RPMI medium; assay type: cell-based; settings: Aspergillus terreus, AT4, MIC banded into grades, read-out: MIC grade, A. terreus
Method in brief: as §2

A. fumigatus A1163 [13] = experiment: Temporary (TI) neutropenic murine survival model of disseminated aspergillosis; assay type: in vivo, CD-1 mouse; settings: for survival at day 18: TI model with prolonged observation; for survival at day 18 / survival benefit / survival: oral; for survival benefit / survival: TI survival model
Method: (§3) Methods: Temporary (TI) or persistently (PI) neutropenic CD-1 mouse models of disseminated aspergillus were used. 3 days post immunosuppression with cyclophosphamide (200 mg/kg ip) mice were infected IV with an LD90 challenge of A. fumigatus A1163. Treatment commenced 5 h post infection and animals were treated for 9 days and observed for either 2 days or 7 days following cessation of treatment. […] 2-(1,5-Dimethyl-3-phenyl-1H-pyrrol-2-yl)-N-{4-[4-(4,6-dimethyl-pyridin-2-yl)-piperazin-1-yl]-phenyl}-2-oxo-acetamide was dosed orally as a suspension in HPMC/Tween 80 once or twice daily. Caspofungin dosed IP was used as a comparator.

A. fumigatus A1163 [14] = experiment: Persistently (PI) neutropenic murine survival model of disseminated aspergillosis; assay type: in vivo, CD-1 mouse; settings: severe PI model, oral, 20 mg/kg BD
Method: as §3

[15] = Oral bio-availability and tissue distribution; settings: in vivo
[16] = system: Aspergillus and other filamentous fungi; experiment: Activity in vitro against Aspergillus and other filamentous fungi; assay type: cell-based

Cc1cc(C)nc(N2CCN(c3ccc(NC(=O)C(=O)c4c(-c5ccccc5)cc(C)n4C)cc3)CC2)c1 [Example 1, 2-(1,5-Dimethyl-3-phenyl-1H-pyrrol-2-yl)-N-{4-[4-(4,6-dimethyl-pyridin-2-yl)-piperazin-1-yl]-phenyl}-2-oxo-acetamide]
MIC (Aspergillus flavus [1]): < 1 µg/mL
MIC [2]: < 1 µg/mL
MIC [3]: < 1 µg/mL
MIC (Aspergillus niger [4]): < 1 µg/mL
MIC (Aspergillus terreus AT49 [5]): < 1 µg/mL
MIC (Aspergillus terreus AT4 [6]): < 1 µg/mL
MIC (Aspergillus flavus [7]): < 1 µg/mL
MIC [8]: < 1 µg/mL
MIC [9]: < 1 µg/mL
MIC (Aspergillus niger [10]): < 1 µg/mL
MIC (Aspergillus terreus AT49 [11]): < 1 µg/mL
MIC (Aspergillus terreus AT4 [12]): < 1 µg/mL
survival at day 18 (A. fumigatus A1163 [13]; 10 mg/kg BD): 80%
survival at day 18 (A. fumigatus A1163 [13]; 20 mg/kg OD): 70%
survival benefit (A. fumigatus A1163 [13]; 1.25 mg/kg per day): little benefit
survival benefit (A. fumigatus A1163 [13]; 2.5 mg/kg per day): little benefit
survival (A. fumigatus A1163 [13]; 5 mg/kg per day): 80%
survival (A. fumigatus A1163 [13]; 10 mg/kg/day): 90%
survival (A. fumigatus A1163 [13]; 20 mg/kg/day): 100%
survival (A. fumigatus A1163 [13]; 30 mg/kg/day): 100%
survival (A. fumigatus A1163 [13]; 40 mg/kg/day): 100%
efficacy compared with caspofungin (CAS) dosed IP (A. fumigatus A1163 [13]; in these models (TI and PI)): at least as effective as CAS
survival at day 12 (A. fumigatus A1163 [14]): 70%
tissue distribution [15]: good
oral bio-availability ([15]; po): good
activity in vitro against Aspergillus and other filamentous fungi [16]: excellent activity

Source: patent US8993574B2, “Pyrrole antifungal agents” (F2G Ltd, priority 2008, dated 2015)
